From patent US10481149B2

Columns and labels:
BSEP [1] = biological target: T1, BSEP (Rattus norvegicus, UniProt O70127); test: IC50 for inhibition of BSEP activity in rat hepatocytes; type: cell-based
T1 sequence (O70127 1-1321): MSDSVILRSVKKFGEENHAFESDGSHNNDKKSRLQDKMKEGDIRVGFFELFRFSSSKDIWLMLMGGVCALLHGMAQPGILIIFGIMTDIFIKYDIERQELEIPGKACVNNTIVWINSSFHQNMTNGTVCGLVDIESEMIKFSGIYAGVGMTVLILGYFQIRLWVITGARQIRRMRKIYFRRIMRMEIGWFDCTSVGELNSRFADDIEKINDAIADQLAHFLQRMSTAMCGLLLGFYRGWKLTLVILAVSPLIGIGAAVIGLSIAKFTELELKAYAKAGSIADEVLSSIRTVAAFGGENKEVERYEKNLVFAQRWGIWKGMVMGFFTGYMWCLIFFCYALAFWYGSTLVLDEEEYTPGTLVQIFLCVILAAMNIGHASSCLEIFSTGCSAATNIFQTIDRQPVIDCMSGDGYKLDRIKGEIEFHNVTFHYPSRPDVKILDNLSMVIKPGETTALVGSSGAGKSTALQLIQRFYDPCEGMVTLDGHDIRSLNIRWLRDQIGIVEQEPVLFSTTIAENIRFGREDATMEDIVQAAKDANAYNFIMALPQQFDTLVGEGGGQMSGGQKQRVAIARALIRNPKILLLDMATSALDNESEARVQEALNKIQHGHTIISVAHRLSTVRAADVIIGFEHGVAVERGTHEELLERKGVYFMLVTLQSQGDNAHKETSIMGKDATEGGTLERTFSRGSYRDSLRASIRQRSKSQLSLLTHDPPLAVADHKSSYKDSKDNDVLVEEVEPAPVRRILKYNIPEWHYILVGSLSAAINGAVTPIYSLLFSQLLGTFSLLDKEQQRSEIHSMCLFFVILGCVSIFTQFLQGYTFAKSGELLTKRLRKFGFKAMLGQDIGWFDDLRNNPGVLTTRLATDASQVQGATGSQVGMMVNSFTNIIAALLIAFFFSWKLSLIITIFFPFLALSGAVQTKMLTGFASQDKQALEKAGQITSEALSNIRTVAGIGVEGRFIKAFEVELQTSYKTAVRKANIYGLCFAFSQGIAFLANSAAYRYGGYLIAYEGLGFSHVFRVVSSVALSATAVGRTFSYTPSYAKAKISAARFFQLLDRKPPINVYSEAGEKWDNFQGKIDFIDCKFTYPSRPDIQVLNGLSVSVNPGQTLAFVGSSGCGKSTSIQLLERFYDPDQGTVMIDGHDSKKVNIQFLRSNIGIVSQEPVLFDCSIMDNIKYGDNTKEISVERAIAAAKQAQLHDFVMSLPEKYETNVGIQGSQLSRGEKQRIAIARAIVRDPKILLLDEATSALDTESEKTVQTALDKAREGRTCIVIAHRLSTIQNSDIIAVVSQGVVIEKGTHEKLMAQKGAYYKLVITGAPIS
Method: (§1) Kinetic parameters were calculated using standard Michaelis-Menten kinetics. IC50 values were determined using Prism software (La Jolla, Calif.) or median-effect equation. [Chou et al., Theoretical basis, experimental design, and computerized simulation of synergism and antagonism in Drug Combination Studies. Pharmacological Reviews 58, 621, 2006]

BSEP [2] = biological target: BSEP (Homo sapiens, UniProt O95342); test: IC50 for inhibition of BSEP activity in human hepatocytes; type: cell-based
Method: as §1

Chain of BSEP (Homo sapiens, UniProt O95342) (O95342 whole entry): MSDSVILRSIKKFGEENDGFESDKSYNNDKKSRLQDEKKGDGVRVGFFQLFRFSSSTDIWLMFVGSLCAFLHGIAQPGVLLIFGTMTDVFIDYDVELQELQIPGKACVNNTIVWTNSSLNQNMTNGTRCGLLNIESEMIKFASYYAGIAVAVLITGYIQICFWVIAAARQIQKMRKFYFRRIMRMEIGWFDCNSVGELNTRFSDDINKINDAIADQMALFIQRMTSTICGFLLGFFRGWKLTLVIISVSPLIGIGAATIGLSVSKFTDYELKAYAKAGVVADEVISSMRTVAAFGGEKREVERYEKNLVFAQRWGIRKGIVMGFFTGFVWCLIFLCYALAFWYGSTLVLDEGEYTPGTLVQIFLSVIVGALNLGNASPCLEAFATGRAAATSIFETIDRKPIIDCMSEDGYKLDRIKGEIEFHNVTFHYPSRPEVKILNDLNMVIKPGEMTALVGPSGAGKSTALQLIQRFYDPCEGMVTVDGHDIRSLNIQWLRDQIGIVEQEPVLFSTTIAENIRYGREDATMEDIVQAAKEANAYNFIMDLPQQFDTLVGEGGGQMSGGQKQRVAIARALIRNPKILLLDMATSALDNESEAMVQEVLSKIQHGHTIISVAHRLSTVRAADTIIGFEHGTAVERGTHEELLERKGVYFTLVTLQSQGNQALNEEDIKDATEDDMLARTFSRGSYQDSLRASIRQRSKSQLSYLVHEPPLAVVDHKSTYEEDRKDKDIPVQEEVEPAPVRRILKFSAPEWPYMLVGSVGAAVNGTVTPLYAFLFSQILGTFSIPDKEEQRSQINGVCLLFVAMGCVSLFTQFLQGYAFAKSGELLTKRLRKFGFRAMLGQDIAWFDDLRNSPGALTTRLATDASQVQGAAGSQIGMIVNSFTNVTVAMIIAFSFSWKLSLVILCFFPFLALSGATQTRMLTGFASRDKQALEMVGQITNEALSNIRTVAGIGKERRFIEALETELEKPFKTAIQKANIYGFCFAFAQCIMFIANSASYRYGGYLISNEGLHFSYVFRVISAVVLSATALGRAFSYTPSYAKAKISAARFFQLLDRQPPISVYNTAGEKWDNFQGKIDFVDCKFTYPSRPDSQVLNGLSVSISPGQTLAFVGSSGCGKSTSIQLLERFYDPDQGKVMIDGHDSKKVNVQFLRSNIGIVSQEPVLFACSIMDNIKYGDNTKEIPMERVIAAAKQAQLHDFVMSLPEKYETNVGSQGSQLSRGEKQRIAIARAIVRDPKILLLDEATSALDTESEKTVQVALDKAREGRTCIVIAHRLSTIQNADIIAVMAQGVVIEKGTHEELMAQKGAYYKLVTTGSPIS

Compound	IC50 (BSEP [1]) [µM]	IC50 (BSEP [2]) [µM]
CC(=O)N1CCN(c2ccc(OCC3COC(Cn4ccnc4)(c4ccc(Cl)cc4Cl)O3)cc2)CC1 (stereo not shown) [Ketoconazole, ketoconazole]	> 10	
CO[C@H]1/C=C/O[C@@]2(C)Oc3c(C)c(O)c4c(O)c(c(/C=N/N5CCN(C)CC5)c(O)c4c3C2=O)NC(=O)/C(C)=C\C=C\[C@H](C)[C@H](O)[C@@H](C)[C@@H](O)[C@@H](C)[C@H](OC(C)=O)[C@@H]1C [Rifampicin]	1 to 10	
Cc1c(C)c2c(c(C)c1O)CCC(C)(COc1ccc(CC3SC(=O)NC3=O)cc1)O2 (stereo not shown) [Troglitazone, troglitazone]	1 to 10	1 to 10
